Experimental data: US12252457B2, “Compositions and methods for reducing tactile dysfunction, anxiety, and social impairment” (President and Fellows of Harvard College, priority 2018, dated 2025)
Read-outs that look alike come from different tables or passages of the source.

Experiments:
Transporter, GABA [1] = target: T1, Transporter, GABA (Rattus norvegicus, UniProt P23978); experiment: GABA transporter radioligand binding assay (Cat # 226400); conditions: reference compound, batch 424211; read-out: Concurrent IC50
T1 construct: tissue Eurofins Panlabs 226400; host or cells: rat brain membranes (own knowledge of the vendor's assay and of the cited Shank et al. 1990 method)
Method: The activity of compound Compound 5 was evaluated in Radioligand Binding assays. Methods employed herein have been adapted from the scientific literature to maximize reliability and reproducibility. Reference standards were run as an integral part of each assay to ensure the validity of the results obtained. Where presented, IC50 values were determined by a non-linear, least squares regression analysis using MathIQ™ (ID Business Solutions Ltd., UK). Where inhibition constants (K) are presented, the Ki values were calculated using the equation of Cheng and Prusoff (Cheng, Y., Prusoff, W. H., Biochem. Pharmacol. 22:3099-3108, 1973) using the observed IC50 of the tested compound, the concentration of radioligand employed in the assay, and the historical values for the KD of the ligand (obtained experimentally at Eurofins Panlabs, Inc.). Where presented, the Hill coefficient (nH), defining the slope of the competitive binding curve, was calculated using MathIQ™. […] Where IC50, Ki and/or nH data are presented without Standard Error of the Mean (SEM), data are insufficient to be quantitative.
Biochemical assay results are presented as the percent inhibition of specific binding or activity. All other results are expressed in terms of the quantitation method of that assay. For primary assays, only the lowest concentration with a significant response, judged by the criteria of the assay, is shown in this summary. […] Unless otherwise requested, primary screening in duplicate with quantitative data (e.g., IC50±SEM, Ki ±SEM and nH) are shown where applicable for individual requested assays.
J Neurochem. 54:2007-2015.

Transporter, GABA [2] = target: T1, Transporter, GABA; conditions: reference compound, historical value; cited from earlier work
[3] = test system: genetic and environmental mouse models of ASD; experiment: Tactile PPI, air puff response and startle amplitude after acute midazolam or isoguvacine in ASD mouse models; type: in vivo; conditions: 2 mg/kg i.p.
Method: FIGS. 19A-19N show acute administration of the peripherally-restricted GABAA receptor agonist isoguvacine improves tactile hypersensitivity in five genetic and one environmental model of ASD. […] Two-way ANOVA with post-hoc Sidak's test, *, p<0.05. FIG. 19B: Response to a light air puff stimulus alone in mice following i.p. administration of either saline or 2 mg/kg midazolam treatment. Responses are expressed as percent of startle response to a 125 dB noise. Two-way ANOVA with post-hoc Sidak's test, *, p<0.05. FIG. 19C: Magnitude of startle response to a 125 dB noise in mice following i.p. administration of either saline or 2 mg/kg midazolam treatment. Responses are expressed as percent of startle response to a 125 dB noise. Two-way ANOVA with post-hoc Sidak's test, *, p<0.05. FIG. 19D: Magnitude of startle response to a 125 dB noise in mice following i.p. administration of saline, midazolam (2 mg/kg) or a peripherally-restricted GABAA receptor agonist, isoguvacine (2 mg/kg). Responses are expressed as percent of startle response to a 125 dB noise. Two-way ANOVA with post-hoc Sidak's test, *, p<0.05. FIGS. 19E-19G: Liquid chromatography mass spectrometry (LC-MS) quantified isoguvacine concentrations in cerebrospinal fluid (CSF) (FIG. 19E), blood (FIG. 19F) or liver (FIG. 19G) samples of mice treated with: i.p. saline, i.p. isoguvacine (“Iso.”, 20 mg/kg, samples collected 1, 3 or 24 hours post-injection), intracerebral injection isoguvacine (20 mg/kg, 1 hour post-injection), i.p. diazepam (“DZ”, 20 mg/kg, 1 hour post injection) or intracerebral injection diazepam (20 mg/kg, 1 hour post injection). FIG. 19H: Normalized peak chloride flux through α1β3γ2- and α2β3γ2-containing GABAA receptors in response to isoguvacine application. […] FIGS. 19I-19K: GABAA receptor subunit RNA expression levels across peripheral somatosensory neuron subtypes, for the alpha (FIG. 19I), beta (FIG. 19J), and gamma (FIG. 19K) subunit types. […] Two-way ANOVA with post-hoc Sidak's test, *, p<0.05. FIG. 19M: Response to a light air puff stimulus alone in mice following i.p. administration of either saline or 2 mg/kg isoguvacine treatment. Responses are expressed as percent of startle response to a 125 dB noise. Two-way ANOVA with post-hoc Sidak's test, *, p<0.05. FIG. 19N: Magnitude of startle response to a 125 dB noise in mice following i.p. administration of either saline or 2 mg/kg isoguvacine treatment. Responses are expressed as percent of startle response to a 125 dB noise. Two-way ANOVA with post-hoc Sidak's test, *, p<0.05.
Results of the GABAA receptor restoration experiments raised the possibility that pharmacological treatment with a GABAA receptor agonist may improve tactile reactivity in Mecp2 mutant mice. It was therefore tested whether benzodiazepines, which are positive allosteric modulators (PAMs) of GABAA receptors, would attenuate hairy skin hypersensitivity in Mecp2 mutant mice. Advillin^Cre; Mecp2^f/y mutant mice and their control littermates were administered either vehicle alone or the benzodiazepine midazolam (2 mg/kg, i.p.) in a pseudorandomized manner, and then subjected to tactile PPI. On the following day, treatment regimens were reversed, and tactile PPI was repeated.
While traditional blood-brain barrier (BBB) penetrating benzodiazepines and non-benzodiazepine GABAA receptor PAMs are useful for treating some ASD-related symptoms in patients, including acute anxiety, significant adverse effects including sedation and addictive potential are common (Gudex, 1991). Furthermore, long-term benzodiazepine use is linked to cognitive impairment across multiple domains, including short-term verbal memory and attention (Golombok et al., 1988; Tata et al., 1994), leading to general reluctance within the medical community for prescribing benzodiazepines and other GABAA receptor PAMs to young children (Howes et al., 2018). […]

| SMILES | IC50 (Transporter, GABA [1]) [nM] | Historical nH (Transporter, GABA [2]) | IC50 (Transporter, GABA [2]) [nM] | Ki (Transporter, GABA [2]) [nM] | tactile sensitivity (tactile PPI) ([3]; Advillin^Cre, Mecp2^f/y mutants and controls) | reduction in startle amplitude (sedation) ([3]; all mice, 125 dB noise) [%] |
| --- | --- | --- | --- | --- | --- | --- |
| O=C(O)C1=CCCN(CCON=C(c2ccccc2)c2ccccc2)C1 [NO-711] | 170 | 1.10 | 200 | 200 |  |  |
| Cc1ncc2n1-c1ccc(Cl)cc1C(c1ccccc1F)=NC2 [midazolam] |  |  |  |  | significantly attenuated tactile sensitivity | ~50 |
